Laboratory results taken from patent publication US20150309042A1, “FLUOROGENIC DENDRIMER REPORTERS AND RELATED METHODS OF USE” (The Regents of the University of Michigan, priority 2013, published 2015).

Key:
[1] = 'click-on' reaction with a representative alkyne-derivatized molecule, fluorescence emission measurement; assay type: physicochemical; conditions: azidocoumarin free vs. attached to the dendrimer
Experimental: The fluorogenic properties of the small molecule and dendrimer coumarin reporters were first evaluated by performing the ‘click’ reaction with a representative alkyne-derivatized molecule, 3-(4-(prop-2-yn-1-yloxy)phenyl)propionic acid at room temperature for 12 hours (Scheme 2). […] However, after attaching to the dendrimer, the absorbance of azidocoumarin has red-shifted 20 nm (λmax Ex 340 vs. 360 nm). Following ligation with the alkyne-derivatized molecule, the G5-Coumarin 3 increased its fluorescence 21-fold (FIG. 1). […] This difference in fluorescent enhancement was primarily attributable to the decrease in the background fluorescence intensity of azidocoumarin on the dendrimer reporter. The structure-property relationships are still under investigation.
Experimental Procedure of “Click-on and Probe” Reaction G5-coumarin 3 was dissolved in Cu(II) sulfate (10 mol % per COUlnarin, 1 mg/mL H20 solution) solution. 3-(4-(prop-2-yn-1-yloxy)phenyl)propanoic acid (5 per coumarin, 5 mg/mL DMSO solution) were added. The reaction mixture was incubated at room temperature for 12 h before diluted in H2O for fluorescent emission measurement. […] The excitation and emission spectra were recorded after dilution using H2O.

[2] = tested on: KB cells; test: detection of EdU incorporated into newly synthesized DNA of KB cells by 'click' ligation and flow cytometry; assay type: cell-based
Description: The efficacy of the fluorogenic reporters in monitoring metabolite flux in a typical cell culture system was next evaluated. 5-ethynyl-2′-deoxyuridine (EdU), a nucleoside analogue, incorporation into newly synthesized DNA (Scheme 2), a common molecular biology technique to profile cellular proliferation, was monitored (see, e.g., Hahn, C. G.; Han, L. Y.; Rawson, N. E.; Mirza, N.; Borgmann-Winter, K.; Lenox, R. H.; Arnold, S. E. J Comp Neurol 2005, 483, 154; Salic, A.; Mitchison, T. J. P Natl Acad Sci USA 2008, 105, 2415; Limsirichaikul, S.; Niimi, A.; Fawcett, H.; Lehmann, A.; Yamashita, S.; Ogi, T. Nucleic Acids Res 2009, 37; Yamakoshi, H.; Dodo, K.; Okada, M.; Ando, J.; Palonpon, A.; Fujita, K.; Kawata, S.; Sodeoka, M. J Am Chem Soc 2011, 133, 6102). Traditionally, 5-bromo-2′-deoxyuridine (BrdU), an antibody-specific nucleoside analogue, has been used to monitor DNA synthesis but is limited by the complicated processing and signal variability (see, e.g., Declercq, E.; Descamps, J.; Balzarini, J.; Giziewicz, J.; Barr, P. J.; Robins, M. J. J Med Chem 1983, 26, 661). EdU is a DNA base modified with a terminal alkyne group replacing the methyl group in the 5 position and is readily incorporated into newly synthesized DNA during cell proliferation. […] To compare the detection efficacy of the different fluorogenic reporters, the DNA-incorporated EdU molecules were ligated with either the small molecule 3-azido-7-hydroxy coumarin or the dendrimer-coumarin reporters (G5-Coumarin 3) using ‘click’ reactions and then analyzed by flow cytometry. […] Similar to other ‘click’ reaction detection methods with traditional azide fluorescent reporters, detection of EdU incorporation into DNA with the fluorogenic dendrimer reporters retain the accuracy of the traditional assays but reduces background fluorescence greatly improving assay throughput.
EdU Labeling and Staining of Cultured Cells. […] Fluorescence signal intensities from the samples were measured using an Accuri C6 Flow Cytometer (Ann Arbor, Mich.) and data were analyzed using FlowJo 8.7 software (TreeStar).

[N-]=[N+]=Nc1cc2ccc(O)cc2oc1=O [3-azido-7-hydroxy coumarin]
λmax Ex [1]: 340 nm | fluorescence intensity after standard wash steps ([2]; KB cells with EdU, after standard wash steps): decreased | cell positive rate before wash steps ([2]; KB cells with EdU, no washes): much higher degree of cell positive rate | fluorescent intensity after ligation with DNA-incorporated EdU ([2]; KB cells, 10 μM EdU for 5 hours, reporters at 10 nM and 100 nM): increases in fluorescent intensity
